# Reference: ChEMBL document CHEMBL1201862, “PubChem BioAssay data set” (2004)
#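 Exposure lasted 48 hours, with cells grown in 96-well plates and compounds tested at five concentrations. The concentration for 50% growth inhibition is given as GI50.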 Active and inactive are the calls of the source. Cut-off read from the data, not from the text of the source: active = GI50 up to about 1.1 µM and inactive = higher.
# Experiments:
# Assay in all cases: NCI-60 cell line screen, 48 h
# [1] = system: RXF 393
# [2] = system: CAKI-1
# [3] = system: LOX IMVI
# [4] = system: OVCAR-3
# [5] = system: SF-539
# [6] = system: M14
# [7] = system: OVCAR-5
# [8] = system: MOLT-4
# [9] = system: SR
# [10] = system: NCI-H226
# [11] = system: SN12C
# [12] = system: RPMI-8226
# [13] = system: IGROV-1
# [14] = system: NCI-H522
# [15] = system: HOP-92
# [16] = system: NCI-H460
# [17] = system: SNB-78
# [18] = system: K562
# [19] = system: DLD-1
# [20] = system: UACC-257
# [21] = system: M19-MEL
# [22] = system: U-251
# [23] = system: OVCAR-8
# [24] = system: SNB-75
# [25] = system: CCRF-CEM
# [26] = system: HL-60
# [27] = system: HCT-116
# [28] = system: SNB-19
# [29] = system: SF-295
# [30] = system: KM-20L2
# [31] = system: DMS-273
# [32] = system: COLO 205
# [33] = system: EKVX
# [34] = system: SF-268
# [35] = system: HCT-15
# [36] = system: Malme-3M
# [37] = system: TK-10
# [38] = system: UO-31
# [39] = system: A549
# [40] = system: OVCAR-4
# [41] = system: KM12
# [42] = system: HT-29
# [43] = system: SW-620
# [44] = system: SK-MEL-5
# [45] = system: NCI-H23
# [46] = system: XF498
# [47] = system: A498
# [48] = system: 786-0
# [49] = system: RXF 631
# [50] = system: LXFL 529
# [51] = system: UACC-62
# [52] = system: HOP-62
# [53] = system: DMS-114
# [54] = system: SK-OV-3
compound,measurement,setting,value
c1ccc(N2N=NC3C4CC(C5c6ccccc6C45)C32)cc1 (centres undefined),GI50,[1],15.4 µM (inactive)
same,GI50,[2],31 µM (inactive)
same,GI50,[3],18.8 µM (inactive)
same,GI50,[4],26.6 µM (inactive)
same,GI50,[5],78.5 µM (inactive)
same,GI50,[6],54.1 µM (inactive)
same,GI50,[7],44.6 µM (inactive)
same,GI50,[8],17.1 µM (inactive)
same,GI50,[9],20.2 µM (inactive)
same,GI50,[10],37.8 µM (inactive)
same,GI50,[11],33.6 µM (inactive)
same,GI50,[12],18.4 µM (inactive)
same,GI50,[13],56.8 µM (inactive)
same,GI50,[14],20.5 µM (inactive)
same,GI50,[15],19.1 µM (inactive)
same,GI50,[16],40.6 µM (inactive)
same,GI50,[17],43.4 µM (inactive)
same,GI50,[18],36.1 µM (inactive)
same,GI50,[19],32.5 µM (inactive)
same,GI50,[20],24.2 µM (inactive)
same,GI50,[21],22.7 µM (inactive)
same,GI50,[22],32.5 µM (inactive)
same,GI50,[23],57.7 µM (inactive)
same,GI50,[24],35.7 µM (inactive)
same,GI50,[25],14 µM (inactive)
same,GI50,[26],19.1 µM (inactive)
same,GI50,[27],24.7 µM (inactive)
same,GI50,[28],69.5 µM (inactive)
same,GI50,[29],38.4 µM (inactive)
same,GI50,[30],32.4 µM (inactive)
same,GI50,[31],47.1 µM (inactive)
same,GI50,[32],41.4 µM (inactive)
same,GI50,[33],37.4 µM (inactive)
same,GI50,[34],34.8 µM (inactive)
same,GI50,[35],31.3 µM
same,GI50,[36],20.8 µM (inactive)
same,GI50,[37],> 100 µM (inactive)
same,GI50,[38],28.2 µM (inactive)
same,GI50,[39],33.8 µM (inactive)
same,GI50,[40],27.3 µM (inactive)
same,GI50,[41],39.3 µM (inactive)
same,GI50,[42],19.6 µM (inactive)
same,GI50,[43],36.6 µM (inactive)
same,GI50,[44],18.7 µM (inactive)
same,GI50,[45],24 µM (inactive)
same,GI50,[46],19.1 µM (inactive)
same,GI50,[47],39.1 µM (inactive)
same,GI50,[48],59 µM (inactive)
same,GI50,[49],34.7 µM (inactive)
same,GI50,[50],44 µM (inactive)
same,GI50,[51],28.1 µM (inactive)
same,GI50,[52],64.4 µM (inactive)
same,GI50,[53],19.9 µM (inactive)
same,GI50,[54],31.5 µM (inactive)
